These results are taken from patent US10947215B2, “Heteroaryl compounds and their use as therapeutic drugs” (Dong-A Socio Holdings Co., Ltd., priority 2015, dated 2021).

This experiment deals with Ba/F3-CDM cells (Ba/F3 transfected with CD8-MerTK). As to the kind of experiment: In cell MER kinase assay, Ba/F3-CDM cell proliferation without IL-3 (Celltiter-Glo, GI50). Type of experiment: cell-based, murine. The note with it: 48 hours, read-out: Cell growth inhibition (GI50). The method, then:
In Cell MER Kinase Assay Using BaF3 Cellular System
To establish an in cell kinase assay for MerTK kinase, the IL-3 dependent Ba/F3 cells of murine lymphoid origin was transfected with CD8-MerTK. […] For a routine cellular assay, Ba/F3-CDM cells were seeded at 2,000 cells per well in 384-well cell culture plate containing DMEM/10% FBS culture media and incubated for 24 hours before addition of compounds pre-diluted in culture media. Following compound treatment, cells were further incubated for 48 hours and the proliferation was measured. To discriminate a Ba/F3 growth inhibition by a specific inhibition of MerTK kinase following compound treatment vs growth inhibition due to a non-specific unintended cytotoxicity of compounds, we routinely carried out control sets of Ba/F3 cells in parallel that grown in IL3-supplemented growth media. In the presence of IL-3, the proliferation of Ba/F3 is no longer dependent on the MerTK activity. Cell growth and proliferation was measured with Celltiter-Glo™ system (Promega, USA) according to the manufacturer's instruction. The half-maximal growth inhibitory concentration (GI50) value was calculated with Prism6.0 software (GraphPad, USA).

Each structure is given as a SMILES string.

By GI50 is commonly meant the concentration giving 50% growth inhibition. Turning to `CC(c1c(F)cc(-c2ccc(CO[C@H]3CCC[C@@H]3NC(=O)c3cc(-c4cnn(C)c4)cnc3N)cc2)cc1F)N1CCN(CCO)CC1` (stereo partly drawn) [Example 212, 2-amino-N-((1S,2S)-2-((3′,5′-difluoro-4′-(1-(4-(2-hydroxyethyl)-piperazin-1-yl)ethyl)-[1,1′-biphenyl]-4-yl)methoxy)cyclopentyl)-5-(1-methyl-1H-pyrazol-4-yl)nicotinamide], the GI50 was greater than 1000 nM.

Regarding `C[C@H](c1ccc(-c2ccc(CO[C@H]3CCC[C@@H]3NC(=O)c3cc(-c4cnn(C)c4)cnc3N)cc2)cc1)N1CCN(C)CC1` [Example 214, 2-amino-5-(1-methyl-1H-pyrazol-4-yl)-N-((1S,2S)-2-((4′-((R)-1-(4-methylpiperazin-1-yl)ethyl)-[1,1′-biphenyl]-4-yl)methoxy)cyclopentyl)nicotinamide], the GI50 is less than 100 nM. With `C[C@@H](c1ccc(-c2ccc(CO[C@H]3CCC[C@@H]3NC(=O)c3cc(-c4cnn(C)c4)cnc3N)cc2)cc1)N1CCN(C)CC1` [Example 215] the figure was less than 100 nM; with `Cn1cc(-c2cnc(N)c(C(=O)N[C@H]3CCC[C@@H]3OCc3ccc(-c4ccc(C5(N6CCN(CCO)CC6)CC5)cc4)cc3)c2)cn1` [Example 220, 2-amino-N-((1S,2S)-2-((4′-(1-(4-(2-hydroxyethyl)piperazin-1-yl)cyclopropyl)-[1,1′-biphenyl]-4-yl)methoxy)cyclopentyl)-5-(1-methyl-1H-pyrazol-4-yl)nicotinamide], less than 100 nM. Turning to `C[C@@H](c1ccc(-c2ccc(CO[C@H]3CCC[C@@H]3NC(=O)c3cc(-c4ccc(F)nc4)cnc3N)cc2)cc1)N1CCN(C)CC1` [Example 222, 6-amino-6′-fluoro-N-((1S,2S)-2-((4′-((S)-1-(4-methylpiperazin-1-yl)ethyl)-[1,1′-biphenyl]-4-yl)methoxy)cyclopentyl)-[3,3′-bipyridine]-5-carboxamide], the GI50 is less than 100 nM. For `C[C@@H](c1ccc(-c2ccc(CO[C@H]3CCC[C@@H]3NC(=O)c3cc(-c4ccc(F)nc4)cnc3N)cc2)cc1)N1CCN(CCO)CC1` [Example 226, 6-amino-6′-fluoro-N-((1S,2S)-2-((4′-((S)-1-(4-(2-hydroxyethyl)piperazin-1-yl)ethyl)-[1,1′-biphenyl]-4-yl)methoxy)cyclopentyl)-[3,3′-bipyridine]-5-carboxamide], the GI50 is less than 100 nM. With `C[C@H](c1ccc(-c2ccc(CO[C@H]3CCC[C@@H]3NC(=O)c3cc(-c4ccc(F)nc4)cnc3N)cc2)cc1)N1CCN(CCO)CC1` [Example 227, 6-amino-6′-fluoro-N-((1S,2S)-2-((4′-((R)-1-(4-(2-hydroxyethyl)-piperazin-1-yl)ethyl)-[1,1′-biphenyl]-4-yl)methoxy)cyclopentyl)-[3,3′-bipyridine]-5-carboxamide] the figure was less than 100 nM. The result for `CC(c1ccc(-c2ccc(CO[C@H]3CCC[C@@H]3NC(=O)c3cc(-c4cncc(F)c4)cnc3N)cc2)cc1)N1CCN(C)CC1` (stereo partly drawn) [Example 230, 6-amino-5′-fluoro-N-((1S,2S)-2-((4′-(1-(4-methylpiperazin-1-yl)ethyl)-[1,1′-biphenyl]-4-yl)methoxy)cyclopentyl)-[3,3′-bipyridine]-5-carboxamide] reads less than 100 nM; that for `CC(c1ccc(-c2ccc(CO[C@H]3CCC[C@@H]3NC(=O)c3cc(-c4cncc(F)c4)cnc3N)cc2)cc1)N1CCN(CCO)CC1` (stereo partly drawn) [Example 236, 6-amino-5′-fluoro-N-((1S,2S)-2-((4′-(1-(4-(2-hydroxyethyl)-piperazin-1-yl)ethyl)-[1,1′-biphenyl]-4-yl)methoxy)cyclopentyl)-[3,3′-bipyridine]-5-carboxamide], less than 100 nM. With `CC(c1ccc(-c2ccc(CO[C@H]3CCC[C@@H]3NC(=O)c3cc(-c4ccc(F)nc4)cnc3N)cc2)cc1)N1CCN(CCO)CC1` (stereo partly drawn) [Example 237, 6-amino-6′-fluoro-N-((1S,2S)-2-((4′-(1-(4-(2-hydroxyethyl)-piperazin-1-yl)ethyl)-[1,1′-biphenyl]-4-yl)methoxy)cyclopentyl)-[3,3′-bipyridine]-5-carboxamide] the figure was less than 100 nM. For the molecule `CC(c1ccc(-c2ccc(CO[C@H]3CCC[C@@H]3NC(=O)c3cc(-c4cccnc4F)cnc3N)cc2)cc1)N1CCN(CCO)CC1` (stereo partly drawn) [Example 238, 6-amino-2′-fluoro-N-((1S,2S)-2-((4′-(1-(4-(2-hydroxyethyl)-piperazin-1-yl)ethyl)-[1,1′-biphenyl]-4-yl)methoxy)cyclopentyl)-[3,3′-bipyridine]-5-carboxamide], the GI50 was less than 100 nM. The result for `CN1CCC(Cc2ccc(-c3ccc(CO[C@H]4CCC[C@@H]4NC(=O)c4cc(-c5cnn(C)c5)cnc4N)cc3)cc2)CC1` [Example 239, 2-amino-5-(1-methyl-1H-pyrazol-4-yl)-N-((1S,2S)-2-((4′-((1-methylpiperidin-4-yl)methyl)-[1,1′-biphenyl]-4-yl)methoxy)cyclopentyl)nicotinamide] reads less than 100 nM. As for `Cn1cc(-c2cnc(N)c(C(=O)N[C@H]3CCC[C@@H]3OCc3ccc(-c4ccc(CC5CCN(CCO)CC5)cc4)cc3)c2)cn1` [Example 240, 2-amino-N-((1S,2S)-2-((4′-((1-(2-hydroxyethyl)piperidin-4-yl)-methyl)-[1,1′-biphenyl]-4-yl)methoxy)cyclopentyl)-5-(1-methyl-1H-pyrazol-4-yl)-nicotinamide], the 50% growth inhibitory concentration (GI50) was less than 100 nM. The result for `Cn1cc(-c2cnc(N)c(C(=O)N[C@H]3CCC[C@@H]3OCc3ccc(-c4ccc(CC5CCN(CC(N)=O)CC5)cc4)cc3)c2)cn1` [Example 242, 2-amino-N-((1S,2S)-2-((4′-((1-(2-amino-2-oxoethyl)piperidin-4-yl)methyl)-[1,1′-biphenyl]-4-yl)methoxy)cyclopentyl)-5-(1-methyl-1H-pyrazol-4-yl)-nicotinamide] reads less than 100 nM; that for `CN(C)CCOc1ccc(-c2ccc(CO[C@H]3CCC[C@@H]3NC(=O)c3cc(-c4cnn(C)c4)cnc3N)cc2)cc1` [Example 245, 2-amino-N-((1S,2S)-2-((4′-(2-(dimethylamino)ethoxy)-[1,1′-biphenyl]-4-yl)methoxy)cyclopentyl)-5-(1-methyl-1H-pyrazol-4-yl)nicotinamide], 500 to 1000 nM; that for `Cn1cc(-c2cnc(N)c(C(=O)N[C@H]3CCC[C@@H]3OCc3ccc(C#CCCO)cc3)c2)cn1` [Example 249, 2-amino-N-((1S,2S)-2-((4-(4-hydroxybut-1-yn-1-yl)benzyl)oxy)-cyclopentyl)-5-(1-methyl-1H-pyrazol-4-yl)nicotinamide], greater than 1000 nM. Regarding `Cn1cc(-c2cnc(N)c(C(=O)N[C@H]3CCC[C@@H]3OCc3ccc(C#CCCCCO)cc3)c2)cn1` [Example 251, 2-amino-N-((1S,2S)-2-((4-(6-hydroxyhex-1-yn-1-yl)benzyl)oxy)-cyclopentyl)-5-(1-methyl-1H-pyrazol-4-yl)nicotinamide], the GI50 was greater than 1000 nM. The result for `Cc1ccc(CO[C@H]2CCC[C@@H]2NC(=O)c2cc(-c3ccc(CN4CCC(N5CCCC5)CC4)c(F)c3)cnc2N)cc1C` [Example 325, 2-amino-N-((1S,2S)-2-((3,4-dimethylbenzyl)oxy)cyclopentyl)-5-(3-fluoro-4-((4-(pyrrolidin-1-yl)piperidin-1-yl)methyl)phenyl)nicotinamide] reads greater than 1000 nM. The result for `CCc1cc(CO[C@H]2CCC[C@@H]2NC(=O)c2cc(-c3ccc(C(C)(C)N4CCN(CCO)CC4)cc3)cnc2N)ccc1C` [Example 360, 2-amino-N-((1S,2S)-2-((3-ethyl-4-methylbenzyl)oxy)cyclopentyl)-5-(4-(2-(4-(2-hydroxyethyl)piperazin-1-yl)propan-2-yl)phenyl)nicotinamide] reads greater than 1000 nM. The result for `CN1CCN(Cc2ccc(-c3ccc(CO[C@H]4CCC[C@@H]4NC(=O)c4cc(-c5ccc(F)c(F)c5)cnc4N)cc3)cc2)CC1` [Example 364] reads less than 100 nM. For `CN1CCC(n2cc(-c3cnc(N)c(C(=O)N[C@H]4CCC[C@@H]4OCc4ccc(-c5ccc(CN6CCN(C)CC6)cc5)cc4)c3)cn2)CC1` [Example 366, 2-amino-N-((1S,2S)-2-((4′-((4-methylpiperazin-1-yl)methyl)-[1,1′-biphenyl]-4-yl)methox)cyclopentyl)-5-(1-(1-methylpiperidin-4-yl)-1H-pyrazol-4-yl)nicotinamide], the GI50 was less than 100 nM.

In the case of `CN1CCN(Cc2ccc(-c3ccc(CO[C@H]4CCC[C@@H]4NC(=O)c4cc(-c5ccc(N6CCN(C)CC6)cc5)cnc4N)cc3)cc2)CC1` [Example 367, 2-amino-N-((1S,2S)-2-((4′-((4-methylpiperazin-1-yl)methyl)-[1,1′-biphenyl]-4-yl)methoxy)cyclopentyl)-5-(4-(4-methylpiperazin-1-yl)phenyl)-nicotinamide], the GI50 was less than 100 nM. The result for `CN1CCN(Cc2ccc(-c3ccc(CO[C@H]4CCC[C@@H]4NC(=O)c4cc(-c5ccc(CN6CCN(C)CC6)cc5)cnc4N)cc3)cc2)CC1` [Example 368, 2-amino-N-((1S,2S)-2-((4′-((4-methylpiperazin-1-yl)methyl)-[1,1′-biphenyl]-4-yl)methoxy)cyclopentyl)-5-(4-((4-methylpiperazin-1-yl)methyl)phenyl)nicotinamide] reads less than 100 nM; that for `CN1CCN(Cc2ccc(-c3ccc(CO[C@H]4CCC[C@@H]4NC(=O)c4cc(-c5ccc(CO)cc5)cnc4N)cc3)cc2)CC1` [Example 369, 2-amino-5-(4-(hydroxymethyl)phenyl)-N-((1S,2S)-2-((4′-((4-methylpiperazin-1-yl)methyl)-[1,1′-biphenyl]-4-yl)methoxy)cyclopentyl)nicotinamide], less than 100 nM.
